# Columns and labels:
# [1] = tested on: ABUTH (Abutilon theophrasti); assay: Postemergence herbicidal evaluation; assay type: in vivo, Medic.
# How it was run: (§1)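 Visual 0–9 injury scores versus control plants, covering stand, vigour, malformation, size, chlorosis and general appearance, taken four to five weeks post-spray and averaged over replicate tests. Plants were sprayed at roughly two weeks old and held on greenhouse benches.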
# [2] = tested on: ORYSAT (Rice, Tebonnet); assay: Postemergence herbicidal evaluation; assay type: in vivo, Oryza sativa, (L.) Tebonnet
# How it was run: as §1
# [3] = tested on: CASOB (Cassia obtusifolia); assay: Postemergence herbicidal evaluation; assay type: in vivo, L.
# How it was run: as §1
# [4] = tested on: CHEAL (Chenopodium album); assay: Postemergence herbicidal evaluation; assay type: in vivo, L.
# How it was run: as §1
# [5] = tested on: AMBEL (Ambrosia artemisifolia); assay: Postemergence herbicidal evaluation; assay type: in vivo, L.
# How it was run: as §1
# [6] = tested on: ZEAMX (Corn, Field); assay: Postemergence herbicidal evaluation; assay type: in vivo, Zea mays, L.
# How it was run: as §1
# [7] = tested on: ORYSAT (Rice, Tebonnet); assay: Flooded paddy, post-transplant rice tolerance; assay type: in vivo, Oryza sativa, (L.) Tebonnet; details: flooded paddy, post-transplant rice, rated 3-4 weeks after treatment, 0-9 rating scale
# How it was run: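 Two ten-day-old Tebonnet rice seedlings transplanted into silt loam, then flooded with water held at 1.5–3 cm above soil; herbicide applied post-transplant. Plants kept in greenhouse and rated visually 0–9 versus untreated control for stand, vigor, malformation, size and chlorosis.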
# [8] = tested on: CYPSE (Cyperus serotinus); assay: Flooded paddy, preemergence weed control; assay type: in vivo, Rottb.; details: rated 3-4 weeks after treatment, 0-9 rating scale
# How it was run: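 Seeds or propagules were planted 0.5 cm deep in silt loam and flooded to 1.5–3 cm. Compounds in 50/50 v/v aqueous/acetone were pipetted into the flood water at about 0.0080 to 0.1250 kg/ha. After 3–4 weeks in the greenhouse, effect was rated visually on a 0–9 scale versus untreated control.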
# [9] = tested on: ECHORC (Echinochloa oryzoides); assay: Flooded paddy, preemergence weed control; assay type: in vivo, Echinochloa oryzoides (Ard.) Fritsch.; details: rated 3-4 weeks after treatment, 0-9 rating scale
# How it was run: (§2)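 Under paddy conditions, seeds or vegetative propagules go into the top 0.5 cm of silt loam; the soil is then flooded to 1.5–3 cm and kept so. Treated pots stay in a greenhouse; response is rated 0-9 visually versus control.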
# [10] = tested on: TRZAWR (Wheat, Winter, cv Riband); assay: Postemergence herbicidal evaluation; assay type: in vivo, Triticum aestivum
# How it was run: as §1
# [11] = tested on: CASOB (Cassia obtusifolia); assay: Preemergence herbicidal evaluation; assay type: in vivo, L.; details: preemergence, rated 4-5 weeks after treatment
# How it was run: (§3)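 Preemergence soil spray, aq. acetone; greenhouse; visual 0–9 score vs control at 4–5 wk.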
# [12] = tested on: CHEAL (Chenopodium album); assay: Preemergence herbicidal evaluation; assay type: in vivo, L.; details: preemergence, rated 4-5 weeks after treatment
# How it was run: as §3
# [13] = tested on: AMBEL (Ambrosia artemisifolia); assay: Preemergence herbicidal evaluation; assay type: in vivo, L.; details: preemergence, rated 4-5 weeks after treatment
# How it was run: as §3
# [14] = tested on: IPOHE (Ipomoea hederacea); assay: Postemergence herbicidal evaluation; assay type: in vivo, (L.) Jacq.
# How it was run: as §1
# [15] = tested on: SAGPY (Sagittaria pygmaea); assay: Flooded paddy, preemergence weed control; assay type: in vivo, L.; details: rated 3-4 weeks after treatment, 0-9 rating scale
# How it was run: as §2
# [16] = tested on: ABUTH (Abutilon theophrasti); assay: Preemergence herbicidal evaluation; assay type: in vivo, Medic.; details: preemergence, rated 4-5 weeks after treatment
# [17] = tested on: TRZAWR (Wheat, Winter, cv Riband); assay: Preemergence herbicidal evaluation; assay type: in vivo, Triticum aestivum; details: preemergence, rated 4-5 weeks after treatment
# How it was run: as §3
# [18] = tested on: ECHCG (Echinochloa crus-galli); assay: Postemergence herbicidal evaluation; assay type: in vivo, (L.) Beau
# How it was run: as §1
# [19] = tested on: ORYSAT (Rice, Tebonnet); assay: Preemergence herbicidal evaluation; assay type: in vivo, Oryza sativa, (L.) Tebonnet; details: preemergence, rated 4-5 weeks after treatment
structure (smiles),measurement,setting,value
"CC1CCOC(c2nsc3ccc(-n4c(=O)cc(C(F)(F)F)n(C)c4=O)cc23)O1 (centres unmarked) [Compound 37, 1-methyl-3-[3-(4-methyl-m-dioxan-2-yl)-1,2-benzisothiazol-5-yl]-6-(trifluoromethyl)uracil]","Postemergence herbicidal rating, ABUTH",[1]; rate 0.0320 kg/ha,9.0
same,"Postemergence herbicidal rating, ABUTH",[1]; rate 0.0620 kg/ha,9.0
same,"Postemergence herbicidal rating, ORYSAT",[2]; rate 0.0320 kg/ha,4.5
same,"Postemergence herbicidal rating, ORYSAT",[2]; rate 0.0620 kg/ha,5.0
same,"Postemergence herbicidal rating, CASOB",[3]; rate 0.0320 kg/ha,4.0
same,"Postemergence herbicidal rating, CASOB",[3]; rate 0.0620 kg/ha,5.0
same,"Postemergence herbicidal rating, CHEAL",[4]; rate 0.0320 kg/ha,5.0
same,"Postemergence herbicidal rating, CHEAL",[4]; rate 0.0620 kg/ha,9.0
same,"Postemergence herbicidal rating, AMBEL",[5]; rate 0.0320 kg/ha,9.0
same,"Postemergence herbicidal rating, AMBEL",[5]; rate 0.0620 kg/ha,9.0
same,"Postemergence herbicidal rating, ZEAMX",[6]; rate 0.0320 kg/ha,6.0
same,"Postemergence herbicidal rating, ZEAMX",[6]; rate 0.0620 kg/ha,6.0
same,"herbicidal rating, ORYSAT (rice tolerance)",[7]; rate 0.0080 kg/ha,5.0
same,"herbicidal rating, ORYSAT (rice tolerance)",[7]; rate 0.0320 kg/ha,8.5
same,"herbicidal rating, ORYSAT (rice tolerance)",[7]; rate 0.1250 kg/ha,9.0
same,"herbicidal rating, CYPSE",[8]; rate 0.0320 kg/ha,9.0
same,"herbicidal rating, CYPSE",[8]; rate 0.1250 kg/ha,9.0
same,"herbicidal rating, ECHORC",[9]; rate 0.0080 kg/ha,3.0
same,"herbicidal rating, ECHORC",[9]; rate 0.0320 kg/ha,9.0
same,"herbicidal rating, ECHORC",[9]; rate 0.1250 kg/ha,9.0
same,"Postemergence herbicidal rating, TRZAWR",[10]; rate 0.0320 kg/ha,5.0
same,"Postemergence herbicidal rating, TRZAWR",[10]; rate 0.0620 kg/ha,7.0
same,CASOB preemergence herbicidal rating,[11]; Rate 0.0620 kg/ha,7.0
same,CASOB preemergence herbicidal rating,[11]; Rate 0.1250 kg/ha,8.0
same,CASOB preemergence herbicidal rating,[11]; Rate 0.2500 kg/ha,9.0
same,CHEAL preemergence herbicidal rating,[12]; Rate 0.0620 kg/ha,9.0
same,CHEAL preemergence herbicidal rating,[12]; Rate 0.1250 kg/ha,9.0
same,CHEAL preemergence herbicidal rating,[12]; Rate 0.2500 kg/ha,9.0
same,AMBEL preemergence herbicidal rating,[13]; Rate 0.0620 kg/ha,9.0
same,AMBEL preemergence herbicidal rating,[13]; Rate 0.1250 kg/ha,9.0
same,AMBEL preemergence herbicidal rating,[13]; Rate 0.2500 kg/ha,9.0
same,"Postemergence herbicidal rating, IPOHE",[14]; rate 0.0320 kg/ha,9.0
same,"Postemergence herbicidal rating, IPOHE",[14]; rate 0.0620 kg/ha,9.0
same,"herbicidal rating, SAGPY",[15]; rate 0.0080 kg/ha,0.0
same,"herbicidal rating, SAGPY",[15]; rate 0.0320 kg/ha,7.0
same,"herbicidal rating, SAGPY",[15]; rate 0.1250 kg/ha,9.0
same,ABUTH preemergence herbicidal rating,[16]; Rate 0.0620 kg/ha,9.0
same,ABUTH preemergence herbicidal rating,[16]; Rate 0.1250 kg/ha,9.0
same,ABUTH preemergence herbicidal rating,[16]; Rate 0.2500 kg/ha,9.0
same,TRZAWR preemergence herbicidal rating,[17]; Rate 0.0620 kg/ha,9.0
same,TRZAWR preemergence herbicidal rating,[17]; Rate 0.1250 kg/ha,9.0
same,TRZAWR preemergence herbicidal rating,[17]; Rate 0.2500 kg/ha,9.0
same,"Postemergence herbicidal rating, ECHCG",[18]; rate 0.0320 kg/ha,4.0
same,"Postemergence herbicidal rating, ECHCG",[18]; rate 0.0620 kg/ha,4.0
same,ORYSAT preemergence herbicidal rating,[19]; Rate 0.0620 kg/ha,9.0
same,ORYSAT preemergence herbicidal rating,[19]; Rate 0.1250 kg/ha,9.0
same,ORYSAT preemergence herbicidal rating,[19]; Rate 0.2500 kg/ha,9.0

# From US6706663B2, “Herbicidal 3-heterocyclic substituted benzisothiazole and benzisoxazole compounds” (Wyeth, priority 2000, dated 2004)
